Patent US8198273B2, “Compounds and methods for kinase modulation, and indications therefor” (Plexxikon Inc., priority 2009, dated 2012)

Biological target: CYP3A4(BQ) (Homo sapiens, UniProt P08684)
Assay: CYP3A4(BQ) inhibition (fluorescent substrate)
Type: in vitro ADME
Conditions: read-out: Cyp IC50 3A4(BQ)
In short: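 Inhibition was followed as loss of fluorescent metabolite from a known substrate, with compound in co-factor mix as a 10-point 1:1 serial dilution (100 mM DMSO stock).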

CYP3A4(BQ), sequence (P08684 whole entry): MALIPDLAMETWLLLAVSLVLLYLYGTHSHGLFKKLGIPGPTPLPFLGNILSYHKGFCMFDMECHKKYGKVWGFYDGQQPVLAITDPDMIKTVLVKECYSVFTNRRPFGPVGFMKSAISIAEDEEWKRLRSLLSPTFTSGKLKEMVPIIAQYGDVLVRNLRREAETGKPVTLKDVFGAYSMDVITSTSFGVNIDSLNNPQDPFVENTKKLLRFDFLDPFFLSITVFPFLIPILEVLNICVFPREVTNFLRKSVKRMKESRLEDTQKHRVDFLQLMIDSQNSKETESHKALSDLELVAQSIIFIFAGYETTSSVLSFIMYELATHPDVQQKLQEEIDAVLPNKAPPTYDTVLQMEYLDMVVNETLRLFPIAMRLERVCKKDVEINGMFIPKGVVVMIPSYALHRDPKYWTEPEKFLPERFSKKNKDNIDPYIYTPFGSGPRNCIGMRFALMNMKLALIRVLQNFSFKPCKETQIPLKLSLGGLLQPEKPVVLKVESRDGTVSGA

CCCS(=O)(=O)Nc1ccc(F)c(C(=O)c2c[nH]c3ncc(-c4ccc(N(C)C)nc4)cc23)c1F [P-2229, Propane-1-sulfonic acid {3-[5-(6-dimethylamino-pyridin-3-yl)-1H-pyrrolo[2,3-b]pyridine-3-carbonyl]-2,4-difluoro-phenyl}-amide]
IC50: > 10 µM
